Measured values as given in publication PMC7701510, “Identification of HN252 as a potent inhibitor of protein phosphatase PPM1B” (Journal of Cellular and Molecular Medicine, 2020).
Positions count from the first letter of the chain named.

Experiments:
PPM1B-R33K = molecular target: T1, PPM1B-R33K (Homo sapiens, UniProt O75688, R33K); experiment: pNPP hydrolysis assay with PPM1B mutant; format: biochemical; settings: pNPP substrate, pH 7.0, 37°C
T1 construct: inferred from pET-28a vector and Ni-NTA purification; made in house; host or cells: Escherichia coli BL21
T1 sequence (O75688 1-479 R33K): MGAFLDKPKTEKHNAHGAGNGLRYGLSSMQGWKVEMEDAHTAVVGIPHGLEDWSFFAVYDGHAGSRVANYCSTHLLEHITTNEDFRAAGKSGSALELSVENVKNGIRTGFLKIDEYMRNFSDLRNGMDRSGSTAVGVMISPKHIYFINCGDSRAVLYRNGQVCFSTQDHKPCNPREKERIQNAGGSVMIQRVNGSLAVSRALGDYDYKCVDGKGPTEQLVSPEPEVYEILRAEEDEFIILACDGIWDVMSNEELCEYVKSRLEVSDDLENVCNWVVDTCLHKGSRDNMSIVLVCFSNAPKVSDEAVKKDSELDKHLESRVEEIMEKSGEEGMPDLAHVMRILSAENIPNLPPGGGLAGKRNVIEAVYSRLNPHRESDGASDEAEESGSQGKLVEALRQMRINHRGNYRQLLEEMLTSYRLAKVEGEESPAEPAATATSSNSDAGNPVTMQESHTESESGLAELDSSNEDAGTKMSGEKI
Procedure: (§1) Escherichia coli BL21 strain was transformed with pET‐28a bacterial expression vector harbouring PPM1B and its mutants. ^17 The fusion proteins were induced to be expressed with 0.5 mM isopropyl‐β‐D‐thiogalactoside (IPTG) and purified from bacterial lysate by Ni‐NTA chromatographic matrices (Qiagen) and AKTA FPLC (GE Healthcare Life Sciences) using a Superdex Increase 200 column.
(§2) The kinetic assays of PPM1B were carried out at 37°C in 0.1 M acetic acid buffer (50 mM Tris, 40 mM Mn^2+, pH 7.0). The p‐nitrophenyl phosphate (pNPP, Sigma) was used as the substrate which could be conveniently measured at 405 nm. Reactions were started by addition of pNPP to a reaction mixture containing PPM1B (0.4 μM PPM1B, final concentration) and various concentrations of HN252 and stopped by addition of 0.5 M EDTA (pH 10.0) after an appropriate time. The Km value of PPM1B towards pNPP hydrolysis (3.6 mM for pNPP) was used to determine the IC50. The IC50 values, the inhibition constant Ki and inhibition pattern were evaluated as previously described. ^18 The kinetic assays of HN252 towards to other protein phosphatases were carried out as previously described. ^19

PPM1B-K170A = molecular target: T2, PPM1B-K170A (Homo sapiens, UniProt O75688, K170A); experiment: pNPP hydrolysis assay with PPM1B mutant; format: biochemical; settings: pNPP substrate, pH 7.0, 37°C
T2 construct: inferred from pET-28a vector and Ni-NTA purification; made in house; host or cells: Escherichia coli BL21
T2 sequence (O75688 1-479 K170A): T1 sequence (O75688 1-479 R33K) with K33R, K170A
Procedure: as §1, §2

HL7702 cells = experiment: Western blot of protein phosphorylation after HN252 treatment; format: cell-based
Procedure: HL7702, COS7, PC‐3 and HCT116 cells were purchased from the Cell Bank of the Shanghai Institute for Biological Sciences, Chinese Academy of Science. HCT116, COS7 and PC3 cells were cultured in DMEM (Gibco); HL7702 cells were cultured in RPMI 1640 medium (Gibco). All media were supplemented with 10% foetal bovine serum (Biological Industries), 100 IU penicillin and […] streptomycin at 37°C in a humidified incubator with 5% CO2.

SSH1 = molecular target: T3, SSH1 (Homo sapiens, UniProt Q8WYL5); experiment: pNPP hydrolysis phosphatase assay (selectivity panel); format: biochemical; settings: pNPP as substrate
T3 sequence (Q8WYL5 1-1049): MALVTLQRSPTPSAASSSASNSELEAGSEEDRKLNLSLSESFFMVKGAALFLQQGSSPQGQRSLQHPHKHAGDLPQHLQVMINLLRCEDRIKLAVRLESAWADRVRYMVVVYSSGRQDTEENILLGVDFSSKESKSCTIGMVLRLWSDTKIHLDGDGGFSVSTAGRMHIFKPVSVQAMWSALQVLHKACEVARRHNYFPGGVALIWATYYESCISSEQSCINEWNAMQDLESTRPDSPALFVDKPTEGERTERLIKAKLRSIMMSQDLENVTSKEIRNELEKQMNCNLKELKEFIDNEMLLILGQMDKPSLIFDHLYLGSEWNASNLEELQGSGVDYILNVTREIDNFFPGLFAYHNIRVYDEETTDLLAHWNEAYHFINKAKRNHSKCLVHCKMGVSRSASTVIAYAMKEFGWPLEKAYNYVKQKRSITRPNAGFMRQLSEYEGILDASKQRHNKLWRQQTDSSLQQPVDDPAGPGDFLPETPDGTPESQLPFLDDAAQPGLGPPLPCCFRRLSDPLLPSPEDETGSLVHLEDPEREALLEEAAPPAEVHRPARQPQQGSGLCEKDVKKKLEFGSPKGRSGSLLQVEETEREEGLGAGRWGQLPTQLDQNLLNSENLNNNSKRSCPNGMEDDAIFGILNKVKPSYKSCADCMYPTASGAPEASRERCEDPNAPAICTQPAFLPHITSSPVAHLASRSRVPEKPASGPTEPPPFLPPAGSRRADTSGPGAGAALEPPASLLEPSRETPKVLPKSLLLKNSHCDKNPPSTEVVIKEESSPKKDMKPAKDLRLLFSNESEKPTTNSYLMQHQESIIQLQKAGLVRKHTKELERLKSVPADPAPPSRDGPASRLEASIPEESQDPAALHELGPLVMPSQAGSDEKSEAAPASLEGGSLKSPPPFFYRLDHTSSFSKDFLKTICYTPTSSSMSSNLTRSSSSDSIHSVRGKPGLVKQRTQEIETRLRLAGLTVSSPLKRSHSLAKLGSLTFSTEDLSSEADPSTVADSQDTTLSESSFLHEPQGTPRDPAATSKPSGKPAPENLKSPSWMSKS
Procedure: as §2

[1] = immunoblotting, HN252 5 μM, 2 h

For `Nc1cc(-c2ccc(-c3ccc(O)c(O)c3)cc2)ccc1C(=O)O` [HN252], the IC50 (PPM1B-R33K) was 58.6 ± 10 µM, the IC50 (PPM1B-K170A) was 30.1 ± 5.7 µM and the “phosphorylation of JNK” value (HL7702 cells; [1]) was “up‐regulated”. The “phosphorylation of β-catenin” value (HL7702 cells; [1]) was “enhanced phosphorylation”, the “phosphorylation of AMPKα, CDK2 and p38” value (HL7702 cells; increasing concentration of HN252, 2 h) was “dramatically increased” and the IC50 (SSH1) was 54.6 ± 13 µM.
